Test results published in PubChem BioAssay AID1963851 (Molecular Pharmacology Branch, DTP, NCI, 2024).

Tested on: 188146-221-R-J1-PDC complex spheroid viability
Experiment: Anticancer human tumor 188146-221-R-J1-PDC patient-derived colon adenocarcinoma cell line growth inhibition [POLQ]
Details: for IC50: curve of first compound; for viability, T/C: stronger effect = lower value
How it was run: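 Three-cell-type spheroids modelling solid tumor plus stroma served as the readout system; POL inhibitors were tested individually and in combination, concentration ranges set by clinical Cmax where known.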

[1] = second compound 0.0316 µM, first compound 0.0316 µM
[2] = second compound 0.0316 µM, first compound 0.1 µM
[3] = second compound 0.0316 µM, first compound 0.316 µM
[4] = second compound 0.0316 µM, first compound 1 µM
[5] = second compound 0.0316 µM, first compound 3.16 µM
[6] = second compound 0.0316 µM, first compound 10 µM
[7] = second compound 0.1 µM, first compound 0.0316 µM
[8] = second compound 0.1 µM, first compound 0.1 µM
[9] = second compound 0.1 µM, first compound 0.316 µM
[10] = second compound 0.1 µM, first compound 1 µM
[11] = second compound 0.1 µM, first compound 3.16 µM
[12] = second compound 0.1 µM, first compound 10 µM
[13] = second compound 0.316 µM, first compound 0.0316 µM
[14] = second compound 0.316 µM, first compound 0.1 µM
[15] = second compound 0.316 µM, first compound 0.316 µM
[16] = second compound 0.316 µM, first compound 1 µM
[17] = second compound 0.316 µM, first compound 3.16 µM
[18] = second compound 0.316 µM, first compound 10 µM
[19] = second compound 1 µM, first compound 0.0316 µM
[20] = second compound 1 µM, first compound 0.1 µM
[21] = second compound 1 µM, first compound 0.316 µM
[22] = second compound 1 µM, first compound 1 µM
[23] = second compound 1 µM, first compound 3.16 µM
[24] = second compound 1 µM, first compound 10 µM
[25] = second compound 3.16 µM, first compound 0.0316 µM
[26] = second compound 3.16 µM, first compound 0.1 µM
[27] = second compound 3.16 µM, first compound 0.316 µM
[28] = second compound 3.16 µM, first compound 1 µM
[29] = second compound 3.16 µM, first compound 3.16 µM
[30] = second compound 3.16 µM, first compound 10 µM
[31] = second compound 10 µM, first compound 0.0316 µM
[32] = second compound 10 µM, first compound 0.1 µM
[33] = second compound 10 µM, first compound 0.316 µM
[34] = second compound 10 µM, first compound 1 µM
[35] = second compound 10 µM, first compound 3.16 µM
[36] = second compound 10 µM, first compound 10 µM
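Also: spheroids exposed to compounds for seven days.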
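For viability, T/C in this document: 100% = DMSO vehicle control viability.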

COc1cc(C2c3cc4c(cc3C(OC3OC5COC(C)OC5C(O)C3O)C3COC(=O)C23)OCO4)cc(OC)c1O (stereo unspecified) + Nc1ccc(C#CCN(C(=O)Cc2ncc(C(F)(F)F)cc2C(F)(F)F)c2ccc(F)cc2)nn1 showed an IC50 (second compound 0.0316 µM) of 597 nM, an IC50 (second compound 0.1 µM) of 789 nM and an IC50 (second compound 0.316 µM) of 582 nM. It also gave an IC50 (second compound 1 µM) of 626 nM, an IC50 (second compound 3.16 µM) of 625 nM and an IC50 (second compound 10 µM) of 633 nM. For the same compound, the viability, T/C [1] was 87.2%, the viability, T/C [2] was 95.2% and the viability, T/C [3] was 61.4%. For the same compound, the viability, T/C [4] was 40.7%, the viability, T/C [5] was 24.9% and the viability, T/C [6] was 22.9%. It also gave a viability, T/C [7] of 89.5%, a viability, T/C [8] of 87.3% and a viability, T/C [9] of 65.9%. It also gave a viability, T/C [10] of 48.2%, a viability, T/C [11] of 27.7% and a viability, T/C [12] of 28.5%. For the same compound, the viability, T/C [13] was 97.1%, the viability, T/C [14] was 97.8% and the viability, T/C [15] was 66.3%. For the same compound, the viability, T/C [16] was 35.5%, the viability, T/C [17] was 25% and the viability, T/C [18] was 21.4%. It also gave a viability, T/C [19] of 97.5%, a viability, T/C [20] of 79.3% and a viability, T/C [21] of 67.6%. The viability, T/C [22] was 39.4%, the viability, T/C [23] was 24.6% and the viability, T/C [24] was 22.2%. It also gave a viability, T/C [25] of 100%, a viability, T/C [26] of 88.5% and a viability, T/C [27] of 64.2%. For the same compound, the viability, T/C [28] was 40.7%, the viability, T/C [29] was 27.1% and the viability, T/C [30] was 25%. It also gave a viability, T/C [31] of 86.8%, a viability, T/C [32] of 78.4% and a viability, T/C [33] of 58.8%. The viability, T/C [34] was 47.4%, the viability, T/C [35] was 25% and the viability, T/C [36] was 29%.
For O=C(c1cc(Cc2n[nH]c(=O)c3ccccc23)ccc1F)N1CCN(C(=O)C2CC2)CC1 + Nc1ccc(C#CCN(C(=O)Cc2ncc(C(F)(F)F)cc2C(F)(F)F)c2ccc(F)cc2)nn1, the IC50 (second compound 0.0316 µM) was > 10000 nM, the IC50 (second compound 0.1 µM) was > 10000 nM and the IC50 (second compound 0.316 µM) was > 10000 nM. The IC50 (second compound 1 µM) was > 10000 nM, the IC50 (second compound 3.16 µM) was > 10000 nM and the IC50 (second compound 10 µM) was > 10000 nM. For the same compound, the viability, T/C [1] was 99.7%, the viability, T/C [2] was 116% and the viability, T/C [3] was 104%. For the same compound, the viability, T/C [4] was 98.3%, the viability, T/C [5] was 93.6% and the viability, T/C [6] was 72.2%. It also gave a viability, T/C [7] of 111%, a viability, T/C [8] of 100% and a viability, T/C [9] of 107%. The viability, T/C [10] was 90.7%, the viability, T/C [11] was 101% and the viability, T/C [12] was 75%. For the same compound, the viability, T/C [13] was 116%, the viability, T/C [14] was 88.5% and the viability, T/C [15] was 89.9%. For the same compound, the viability, T/C [16] was 106%, the viability, T/C [17] was 80.9% and the viability, T/C [18] was 81.6%. For the same compound, the viability, T/C [19] was 117%, the viability, T/C [20] was 90.3% and the viability, T/C [21] was 94.3%. For the same compound, the viability, T/C [22] was 92.5%, the viability, T/C [23] was 96% and the viability, T/C [24] was 69.1%. The viability, T/C [25] was 101%, the viability, T/C [26] was 104% and the viability, T/C [27] was 97%. For the same compound, the viability, T/C [28] was 102%, the viability, T/C [29] was 91.2% and the viability, T/C [30] was 77.1%. It also gave a viability, T/C [31] of 95.3%, a viability, T/C [32] of 95.3% and a viability, T/C [33] of 110%. For the same compound, the viability, T/C [34] was 89.8%, the viability, T/C [35] was 88.2% and the viability, T/C [36] was 73%.
Work on O=c1[nH]cc(F)c(=O)[nH]1 + Nc1ccc(C#CCN(C(=O)Cc2ncc(C(F)(F)F)cc2C(F)(F)F)c2ccc(F)cc2)nn1 yielded an IC50 (second compound 0.0316 µM) of 2920 nM, an IC50 (second compound 0.1 µM) of 2730 nM and an IC50 (second compound 0.316 µM) of 2140 nM. The IC50 (second compound 1 µM) was 3660 nM, the IC50 (second compound 3.16 µM) was 1620 nM and the IC50 (second compound 10 µM) was 1990 nM. It also gave a viability, T/C [1] of 116%, a viability, T/C [2] of 111% and a viability, T/C [3] of 83.8%. The viability, T/C [4] was 54.1%, the viability, T/C [5] was 46.6% and the viability, T/C [6] was 52.4%. For the same compound, the viability, T/C [7] was 121%, the viability, T/C [8] was 105% and the viability, T/C [9] was 72.6%. It also gave a viability, T/C [10] of 58%, a viability, T/C [11] of 50.3% and a viability, T/C [12] of 45.5%. The viability, T/C [13] was 113%, the viability, T/C [14] was 103% and the viability, T/C [15] was 79.2%. For the same compound, the viability, T/C [16] was 55.2%, the viability, T/C [17] was 48.9% and the viability, T/C [18] was 43.2%. The viability, T/C [19] was 100%, the viability, T/C [20] was 82.4% and the viability, T/C [21] was 74.5%. For the same compound, the viability, T/C [22] was 58.6%, the viability, T/C [23] was 50.1% and the viability, T/C [24] was 44.9%. The viability, T/C [25] was 102%, the viability, T/C [26] was 91.7% and the viability, T/C [27] was 74%. For the same compound, the viability, T/C [28] was 49.9%, the viability, T/C [29] was 46.6% and the viability, T/C [30] was 47.5%. For the same compound, the viability, T/C [31] was 123%, the viability, T/C [32] was 112% and the viability, T/C [33] was 85.7%. It also gave a viability, T/C [34] of 54.6%, a viability, T/C [35] of 47.1% and a viability, T/C [36] of 43.7%.
